Test [1] is described as follows: competition ELISA for LPS-binding capacity. On the set-up: species or system E. coli. Conditions: competition with biotinylated LALF32-51 at 0.2 μM; analogous peptides 10 μM to 0.01 μM; FIG. 1A. The method, then: This assay consists on a competition ELISA system (Hardy E., et al (1994) Enhanced ELISA sensitivity using TCA for efficient coating of biologically active LPS or Lipid A to the solid phase. J. Immunol. Meth. Vol. 176:111-116). Polystyrene plates (Costar, USA) were coated with LPS from E. coli 0111:B4 (1 μg/ml) with 0.2% trichloroacetic acid (TCA). Plates were incubated overnight at 37° C. and further washed ten times with 1× phosphate-buffered saline (1×PBS) plus 0.1% tween-20 (washing solution). The binding of analogous peptides to the LPS fixed to the solid surface was evaluated by a competition ELISA with the biotinylated LALF32-51 peptide at 0.2 μM, obtaining a 90% of maximum LPS binding. To estimate the inhibition curves, different concentrations of the analogous peptides were used, from 10 μM to 0.01 μM and the curve of the LALF32-51 peptide as experimental control. The biotinylated LALF32-51 was incubated in the presence of the analogous peptides for 2 h at 37° C. and plates were washed 5 times after that time with washing solution. The biotinylated LALF32-51 bound to LPS was detected by incubating for 45 min at 37° C. with a streptavidin-peroxidase conjugate at a 1:2,000 dilution. Plates were washed 5 times with washing solution and the substrate solution was added (0.05 M citrate-phosphate buffer, pH 5.5, 1 tablet of 3,3′,5,5′-tetramethylbenzidine and 0.025% hydrogen peroxide). After 15 min incubation, the reaction was stopped by adding 2 M sulphuric acid. The absorbance was quantified at 450 nm in a plate reader (Sensident Scan). There is a correlation between optical density values and the LPS-binding capacity of analogous peptides. Analogous peptides with higher LPS-binding capacity show inhibition curves of lower O.D. compared to the inhibition curve of the LALF32-51 peptide.
Analogous peptides with lower LPS-binding capacity present inhibition curves with […], compared to the inhibition curve of the LALF32-51 peptide.
FIG. 1B represents the inhibition percentages of analogous peptides, at a fixed […] concentration, according to their capacity to displace the binding of the biotinylated LALF32-51 (0.2 μM) to LPS adsorbed to the solid surface. % de inhibición={1−(([O.D.]sample−[O.D.]min)/([O.D.]max−[O.D.]min))}×100 [O.D.] sample: Optical density value in the presence of a fixed concentration of analogous peptides; [O.D.] min: ELISA background; [O.D.] max: Optical density value without analogous peptides.
A general note: An ELISA detects its analyte on a solid surface through an enzyme-linked reagent.

Test [2] deals with mice lung cancer 3LLD122 cells. Nature of the test: metastasis model of Lewis' carcinoma. It counts as in vivo, C57BI/6 female mice. Conditions: 4 mg/kg s.c. after 7 days; sacrifice 21 days after removal of primary tumor; FIG. 8. The protocol:
Eight-to-ten weeks-old C57BI/6 female mice were used for this assay (n=8 animals per experimental group). These animals were inoculated in the posterior right footpad with 250,000 mice lung cancer 3LLD122 cells. After 7 days, a 4 mg/kg of body weight dose of the L-2 analogous peptide was subcutaneously injected. When tumors reached 8 mm in diameter, the primary tumor was surgically removed from the carrier leg. Mice were sacrificed 21 days after this surgical procedure. Lungs were weighed to indicate the amount of metastasis on them.

The test system of test [3] is H-125 (non-small human ling cancer cells). Put plainly: growth of tumor cells, crystal violet, H-125. It counts as cell-based. The note with it: 9 μM to 300 μM, 72 h; FIG. 9. The protocol: For this assay, TC-1, H-125 (non-small human ling cancer cells) and L929) murine fibroblast) cells were seeded in 96-well culture plates (Costar) at a 2×10^4 cells/ml in Dulbecco's modified Eagle's medium (DMEM)(Gibco) supplemented with Calf Fetal Serum (Gibco). After 24 h, the peptides were added to the culture in a range of 9 μM to 300 μM. […] Plates were extensively washed with tap water and plates were read at 562 nm. A pro-apoptotic peptide with a marked anti-proliferative effect in vitro was employed as positive control (Perea, S., et al (2004) Antitumor Effect of a Novel Proapoptotic Peptide that Impairs the Phosphorylation by the Protein Kinase 2 Cancer Research 64: 7127-7129).

Regarding “HARIKPTFRRLKWKYKGKFW [Peptide L-2, alanine-substituted analogue of LALF 32-51]”, in test [1], the LPS-binding capacity result is on record as “lose the capacity to bind LPS”. In addition, the “metastasis (lung weight)” value in test [2] is reported as “able to reduce the metastatic tumor events”. The anti-proliferative effect result in test [3] is listed as “dose-dependent anti-proliferative effect”.
